Measurements: patent US12570648B2, “6,7-dihydro-5H-pyrido[2,3-c]pyridazine derivatives and related compounds as Bcl-xL protein inhibitors and pro-apoptotic agents for treating cancer” (LES LABORATOIRES SERVIER, priority 2019, dated 2026)

Assays:
[1] = target: His-His-(EK)-hsBCLXL(2-197)[N197C] (Homo sapiens (Human), UniProt Q07817, N197C); assay: Fluorescence quenching assay; assay type: binding; conditions: 1 nM Cy5-labelled protein, 400 nM PUMA peptide, 2 hours at 23° C.; KI determined from IC50
Method in brief: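 Ki values converted from IC50s, measured as fluorescence increase (Ex 620/Em 680 nm) after 2 h at 23° C. Compounds were titrated over 11 points against 1 nM Cy5-BCL-xL and 400 nM quencher-tagged PUMA peptide in pH 7.4 HEPES (10 mM), 150 mM NaCl, 0.05% Tween 20, 5% DMSO.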

H146 cells = assay: H146 cell viability using MTT assay; assay type: cell-based; conditions: Homo sapiens, NCI-H146, 48 h exposure
Procedure: MTT colorimetric assay is based on the mitochondrial reduction of tetrazolium salt by living cells. The viable cell number is proportional to the production of formazan salts, which can be read spectrophotometrically at 540 nm.
MOLT-4 and H146 cells were purchased from ATCC and cultivated in RPMI 1640 supplemented with 10% heat inactivated fetal bovine serum, penicillin (100 IU/ml), streptomycin (100 μg/ml) and L-glutamine (2 mM). Cells were cultured at 37° C. in a humidified atmosphere containing 5% CO2. Cells were seeded in 96 microwell plates (150p per well) and exposed to the compounds for 48 h (3.16 fold serially diluted; 9 concentrations each, triplicates). At the end of incubation time, 15 μL of MTT solution (5 mg/ml) were added per well and the cells were incubated for another 4 h. Then, 100 μL of 10% Sodium Dodecyl Sulfate (SDS)/HCl 10 mM were added per well and the plate was incubated overnight, before measurement of optical density at 540 nm. IC50s were calculated using standard four-parametric curve fitting.

MOLT-4 cells = assay: MOLT-4 cell viability using MTT assay; assay type: cell-based; conditions: Homo sapiens, MOLT-4, 48 h, 48 h exposure
Procedure: MTT colorimetric assay is based on the mitochondrial reduction of tetrazolium salt by living cells.
Cells were cultured at 37° C. in a humidified atmosphere containing 5% CO2. […] At the end of incubation time, 15 μL of MTT solution (5 mg/ml) were added per well and the cells were incubated for another 4 h. […] IC50s were calculated using standard four-parametric curve fitting.

Chain of His-His-(EK)-hsBCLXL(2-197)[N197C] (Q07817 2-197 N197C): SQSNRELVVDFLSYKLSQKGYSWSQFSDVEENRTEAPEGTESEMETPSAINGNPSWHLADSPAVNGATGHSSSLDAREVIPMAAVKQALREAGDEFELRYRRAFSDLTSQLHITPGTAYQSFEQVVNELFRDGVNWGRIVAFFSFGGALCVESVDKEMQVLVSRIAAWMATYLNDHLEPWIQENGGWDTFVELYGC

| Compound | Ki [1] | IC50 (H146 cells) | IC50 (MOLT-4 cells) |
| --- | --- | --- | --- |
| Cc1c(Nc2nc3ccccc3s2)nnc2c1CCCN2c1nc(C(=O)O)c(CCCOc2ccc(C#CCN3CCCC3)cc2F)s1 [Example 42, 2-[3-(1,3-Benzothiazol-2-ylamino)-4-methyl-6,7-dihydro-5H-pyrido[2,3-c]pyridazin-8-yl]-5-[3-[2-fluoro-4-(3-pyrrolidin-1-ylprop-1-ynyl)phenoxy]propyl]thiazole-4-carboxylic acid] | 0.0028 nM | 3.02 nM | 0.327 nM |
| Cc1c(Nc2nc3ccccc3s2)nnc2c1CCCN2c1nc(C(=O)O)c(CCCOc2ccc(C#CCN3CCC(F)(F)CC3)cc2F)s1 [Example 49, 2-{3-[(1,3-Benzothiazol-2-yl)amino]-4-methyl-5H,6H,7H,8H-pyrido[2,3-c]pyridazin-8-yl}-5-(3-{4-[3-(4,4-difluoropiperidin-1-yl)prop-1-yn-1-yl]-2-fluorophenoxy}propyl)-1,3-thiazole-4-carboxylic acid] | 0.064 nM | 33.4 nM | 2.13 nM |
| Cc1c(Nc2nc3ccccc3s2)nnc2c1CCN2c1nc(C(=O)O)cs1 [Example 11, 2-{3-[(1,3-Benzothiazol-2-yl)amino]-4-methyl-5H,6H,7H-pyrrolo[2,3-c]pyridazin-7-yl}-1,3-thiazole-4-carboxylic acid] | – | 6360 nM | 2430 nM |
| Cc1c(Nc2nc3ccccc3s2)nnc2c1CCCN2c1nc(C(=O)O)c(CCCOc2ccc(C#CCN3C[C@@H]4[C@H](C3)C4(F)F)cc2F)s1 [Example 63, 2-[3-(1,3-Benzothiazol-2-ylamino)-4-methyl-6,7-dihydro-5H-pyrido[2,3-c]pyridazin-8-yl]-5-[3-[4-[3-[(1S,5R)-6,6-difluoro-3-azabicyclo[3.1.0]hexan-3-yl]prop-1-ynyl]-2-fluoro-phenoxy]propyl]thiazole-4-carboxylic acid] | 0.081 nM | 20.2 nM | – |
| Cc1c(Nc2nc3ccccc3s2)nnc2c1CCCN2c1nc(C(=O)O)c(CCCOc2ccc(C34CC(CN(C)C)(C3)C4)cc2F)s1 [Example 90, 2-[3-(1,3-Benzothiazol-2-ylamino)-4-methyl-6,7-dihydro-5H-pyrido[2,3-c]pyridazin-8-yl]-5-[3-[4-[1-[(dimethylamino)methyl]-3-bicyclo[1.1.1]pentanyl]-2-fluoro-phenoxy]propyl]thiazole-4-carboxylic acid] | 0.0022 nM | – | 0.46 nM |
| Cc1c(Nc2nc3ccccc3s2)nnc2c1CCCN2c1ccc(-c2cnn(CC34CC5(C)CC(C)(C3)CC(OCCN3CCOCC3)(C5)C4)c2C)c(C(=O)O)n1 [Example 142, 6-[3-(1,3-benzothiazol-2-ylamino)-4-methyl-6,7-dihydro-5H-pyrido[2,3-c]pyridazin-8-yl]-3-[1-[[3,5-dimethyl-7-(2-morpholinoethoxy)-1-adamantyl]methyl]-5-methyl-pyrazol-4-yl]pyridine-2-carboxylic acid] | 0.0026 nM | – | 0.0513 nM |
| Cc1c(Nc2nc3ccccc3s2)nnc2c1CCCN2c1nc(C(=O)O)c(CCCOc2ccc(C#CCN(C(C)C)C(C)C)cc2F)s1 [Example 86, 2-[3-(1,3-Benzothiazol-2-ylamino)-4-methyl-6,7-dihydro-5H-pyrido[2,3-c]pyridazin-8-yl]-5-[3-[4-[3-(diisopropylamino)prop-1-ynyl]-2-fluoro-phenoxy]propyl]thiazole-4-carboxylic acid] | 0.019 nM | – | 1.5 nM |
| Cc1c(Nc2nc3ccccc3s2)nnc2c1CCCN2c1nc(C(=O)O)c(CCCOc2ccc(C#CCN3C[C@@H](C)N[C@@H](C)C3)cc2F)s1 [Example 89, 2-[3-(1,3-Benzothiazol-2-ylamino)-4-methyl-6,7-dihydro-5H-pyrido[2,3-c]pyridazin-8-yl]-5-[3-[4-[3-[(3R,5S)-3,5-dimethylpiperazin-1-yl]prop-1-ynyl]-2-fluoro-phenoxy]propyl]thiazole-4-carboxylic acid] | 0.0028 nM | – | 0.57 nM |
| CNCCCCc1ccc(OCCCc2sc(N3CCCc4c3nnc(Nc3nc5ccccc5s3)c4C)nc2C(=O)O)c(F)c1 [Example 75, 2-{3-[(1,3-Benzothiazol-2-yl)amino]-4-methyl-5H,6H,7H,8H-pyrido[2,3-c]pyridazin-8-yl}-5-(3-{2-fluoro-4-[4-(methylamino)butyl]phenoxy}propyl)-1,3-thiazole-4-carboxylic acid] | 0.0033 nM | – | 9.78 nM |
| Cc1c(Nc2nc3cccc(F)c3s2)nnc2c1CCCN2c1ccc(-c2cnn(CC34CC5(C)CC(C)(C3)CC(OCCN3CCCC3)(C5)C4)c2C)c(C(=O)O)n1 [Example 178, 3-[1-[[3,5-dimethyl-7-(2-pyrrolidin-1-ylethoxy)-1-adamantyl]methyl]-5-methyl-pyrazol-4-yl]-6-[3-[(7-fluoro-1,3-benzothiazol-2-yl)amino]-4-methyl-6,7-dihydro-5H-pyrido[2,3-c]pyridazin-8-yl]pyridine-2-carboxylic acid] | 0.0022 nM | – | 0.641 nM |
| Cc1c(Nc2nc3ccccc3s2)nnc2c1CCCN2c1ccc(-c2cnn(CC34CC5(C)CC(C)(C3)CC(OCCN3CCN(C(C)C)CC3)(C5)C4)c2C)c(C(=O)O)n1 [Example 146, 6-[3-(1,3-benzothiazol-2-ylamino)-4-methyl-6,7-dihydro-5H-pyrido[2,3-c]pyridazin-8-yl]-3-[1-[[3-[2-(4-isopropylpiperazin-1-yl)ethoxy]-5,7-dimethyl-1-adamantyl]methyl]-5-methyl-pyrazol-4-yl]pyridine-2-carboxylic acid] | 0.0032 nM | – | 0.247 nM |
| Cc1c(Nc2nc3ccccc3s2)nnc2c1CCCN2c1nc(C(=O)O)c(CCCOc2ccc(CCCN3C[C@@H]4[C@H](C3)C4(F)F)cc2F)s1 [Example 72, 2-[3-(1,3-Benzothiazol-2-ylamino)-4-methyl-6,7-dihydro-5H-pyrido[2,3-c]pyridazin-8-yl]-5-[3-[4-[3-[(1R,5S)-6,6-difluoro-3-azabicyclo[3.1.0]hexan-3-yl]propyl]-2-fluoro-phenoxy]propyl]thiazole-4-carboxylic acid] | 0.08 nM | – | 13.9 nM |

The next lines start with the values.

| Ki [1] | IC50 (H146 cells) | IC50 (MOLT-4 cells) | Compound |
| --- | --- | --- | --- |
| 0.002 nM | – | 3.25 nM | Cc1c(Nc2nc3ccccc3s2)nnc2c1CCCN2c1ccc(-c2cnn(CC34CC5(C)CC(C)(CC(CCCNCC[C@H](O)CO)(C5)C3)C4)c2C)c(C(=O)O)n1 [Example 172, 6-[3-(1,3-benzothiazol-2-ylamino)-4-methyl-6,7-dihydro-5H-pyrido[2,3-c]pyridazin-8-yl]-3-[1-[[3-[3-[[(3S)-3,4-dihydroxybutyl]amino]propyl]-5,7-dimethyl-1-adamantyl]methyl]-5-methyl-pyrazol-4-yl]pyridine-2-carboxylic acid] |
| 0.0018 nM | – | 0.265 nM | Cc1c(Nc2nc3ccccc3s2)nnc2c1CCCN2c1ccc(-c2cnn(CC34CC5(C)CC(C)(C3)CC(OCCN3CCCCCC3)(C5)C4)c2C)c(C(=O)O)n1 [Example 145, 3-[1-[[3-[2-(azepan-1-yl)ethoxy]-5,7-dimethyl-1-adamantyl]methyl]-5-methyl-pyrazol-4-yl]-6-[3-(1,3-benzothiazol-2-ylamino)-4-methyl-6,7-dihydro-5H-pyrido[2,3-c]pyridazin-8-yl]pyridine-2-carboxylic acid] |
| 0.0015 nM | – | 0.0824 nM | COCCCN(C)CCOC12CC3(C)CC(C)(CC(Cn4ncc(-c5ccc(N6CCCc7c6nnc(Nc6nc8ccccc8s6)c7C)nc5C(=O)O)c4C)(C3)C1)C2 [Example 151, 6-[3-(1,3-benzothiazol-2-ylamino)-4-methyl-6,7-dihydro-5H-pyrido[2,3-c]pyridazin-8-yl]-3-[1-[[3-[2-[3-methoxypropyl(methyl)amino]ethoxy]-5,7-dimethyl-1-adamantyl]methyl]-5-methyl-pyrazol-4-yl]pyridine-2-carboxylic acid] |
| 0.0018 nM | – | 0.74 nM | Cc1c(Nc2nc3ccccc3s2)nnc2c1CCCN2c1nc(C(=O)O)c(CCCOc2ccc(C#CCNCCN(C)C)cc2F)s1 [Example 76, 2-[3-(1,3-Benzothiazol-2-ylamino)-4-methyl-6,7-dihydro-5H-pyrido[2,3-c]pyridazin-8-yl]-5-[3-[4-[3-[2-(dimethylamino)ethylamino]prop-1-ynyl]-2-fluoro-phenoxy]propyl]thiazole-4-carboxylic acid] |
| 0.002 nM | – | 1.32 nM | Cc1c(Nc2nc3ccccc3s2)nnc2c1CCCN2c1ccc(-c2cnn(CC34CC5(C)CC(C)(C3)CC(OCCNCCCCO)(C5)C4)c2C)c(C(=O)O)n1 [Example 132, 6-[3-(1,3-benzothiazol-2-ylamino)-4-methyl-6,7-dihydro-5H-pyrido[2,3-c]pyridazin-8-yl]-3-[1-[[3-[2-(4-hydroxybutylamino)ethoxy]-5,7-dimethyl-1-adamantyl]methyl]-5-methyl-pyrazol-4-yl]pyridine-2-carboxylic acid] |
